According to patent US9120749B2, “Quinoline derivatives and MELK inhibitors containing the same” (ONCOTHERAPY SCIENCE, INC., priority 2010, dated 2015):

Experiments:
HT-1197 cells = test: Cell-based assay: anti-proliferative activity, Cell Counting Kit-8, 72 hours (HT-1197, negative control without MELK expression); conditions: Homo sapiens, HT1197, 72 h, HT1197 cells (negative control, no MELK expression), 72 hours
Method: (§1) To evaluate the expression status of MELK in several cell lines, western blot analysis was performed using crude cell lysate collected from those cells. Anti-MELK antibody (clone 31, BD Biosciences) was used to visualize the expression.
(§2) Active candidate inhibitors against MELK were evaluated for their target-specific cytotoxicity using T47D, A549, BT-549, and HT-1197 cells was used for negative control. 100 micro-L of cell suspension was seeded onto 96-well microtiter plate (ViewPlate-96FTC, PerkinElmer). The initial cell concentration of T47D, A549, BT-549, and HT-1197 were 3,000 cells/well, 2,000 cells/well and 2,500 cells/well, respectively. Cellular growth was determined using Cell Counting Kit-8 (DOJINDO) at 72 hours after the exposure of the candidate inhibitors. […] Accurate IC50 values were calculated as described previously.

DU4475 cells = test: Cell-based assay: anti-proliferative activity, Cell Counting Kit-8, 72 hours (DU4475); conditions: Homo sapiens, DU-4475, 72 h
T47D cells = test: Cell-based assay: anti-proliferative activity, Cell Counting Kit-8, 72 hours (T47D); conditions: Homo sapiens, T47D, 72 h
Method: as §1, §2

A549 cells = test: Cell-based assay: anti-proliferative activity, Cell Counting Kit-8, 72 hours (A549); conditions: Homo sapiens, A549, 72 h, 72 hours
Method: as §2, with “100” for “Active candidate inhibitors against MELK were evaluated for their target-specific cytotoxicity using T47D, A549, BT-549, and HT-1197 cells was used for negative control. 100”

MELK = MELK (Homo sapiens, UniProt Q14680); test: Kinase assay: MELK activity, phosphorylation of FITC-labeled histone H3 peptide measured by IMAP fluorescence polarization; format: biochemical; conditions: 50 micro-M ATP, FITC-labeled histone H3 peptide substrate, IMAP fluorescence polarization; read-out: IC50 (μM) (kinase assay)
Summary of the method: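 FP readout: FITC-histone H3 peptide phosphorylation, read 0.5 h (RT) after stopping with 3x volume of IMAP progressive binding solution. Final DMSO 1%.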

MELK, sequence (Q14680 whole entry, looked up): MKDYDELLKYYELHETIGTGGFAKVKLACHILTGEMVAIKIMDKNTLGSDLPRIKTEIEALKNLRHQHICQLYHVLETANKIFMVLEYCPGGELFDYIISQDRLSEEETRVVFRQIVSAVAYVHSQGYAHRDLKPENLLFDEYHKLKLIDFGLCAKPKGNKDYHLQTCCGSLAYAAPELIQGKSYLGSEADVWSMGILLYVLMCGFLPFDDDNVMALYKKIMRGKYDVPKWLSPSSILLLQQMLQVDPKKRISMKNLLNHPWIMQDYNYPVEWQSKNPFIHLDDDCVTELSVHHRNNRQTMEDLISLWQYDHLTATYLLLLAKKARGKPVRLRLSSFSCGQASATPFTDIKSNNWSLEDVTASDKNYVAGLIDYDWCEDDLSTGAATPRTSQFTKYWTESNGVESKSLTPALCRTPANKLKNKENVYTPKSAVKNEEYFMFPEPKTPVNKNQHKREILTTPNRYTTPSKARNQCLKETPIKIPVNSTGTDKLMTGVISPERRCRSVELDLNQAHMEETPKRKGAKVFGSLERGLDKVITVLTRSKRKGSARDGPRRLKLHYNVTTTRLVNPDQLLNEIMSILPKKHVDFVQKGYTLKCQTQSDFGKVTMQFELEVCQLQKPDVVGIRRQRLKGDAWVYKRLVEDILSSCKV

| SMILES | IC50 (HT-1197 cells) [µM] | IC50 (DU4475 cells) [µM] | IC50 (T47D cells) [µM] | IC50 (A549 cells) [µM] | IC50 (MELK) [µM] |
| --- | --- | --- | --- | --- | --- |
| CC(=O)c1cnc2ccc(-c3cc(Cl)c(O)c(Cl)c3)cc2c1N[C@H]1CC[C@H](CCN(C)C)CC1 [Example 739, 1-(6-(3,5-dichloro-4-hydroxyphenyl)-4-((trans-4-(2-(dimethylamino)ethyl)cyclohexyl)amino)quinolin-3-yl)ethanone] | 4 | 0.099 | 0.14 |  |  |
| CN1CCN(C[C@H]2CC[C@H](Nc3c(C(=O)C4CC4)cnc4ccc(-c5cc(F)c(O)c(Cl)c5)cc34)CC2)CC1 [Example 636] | 0.94 | 0.18 | 0.16 | 0.2 |  |
| O=C(c1cnc2ccc(-c3cc(Cl)c(O)c(Cl)c3)cc2c1-c1ccc(N2CCNCC2)nc1)C1CC1 [Example 459] | 10 |  | 0.83 | 1.9 | 0.0091 |
| CN(C)Cc1ccc(Nc2c(S(C)(=O)=O)cnc3ccc(-c4ccc(O)c(Cl)c4)cc23)cc1 [Example 411, 2-chloro-4-(4-(4-((dimethylamino)methyl)phenylamino)-3-(methylsulfonyl)quinolin-6-yl)phenol] | 0.63 |  | 0.29 | 0.37 | 0.0091 |
| CN(C)CC1CCN(c2c(C(=O)C3CC3)cnc3ccc(-c4ccc(O)c(C(F)(F)F)c4)cc23)CC1 [Example 454] | 5.3 |  | 4 | 1.3 | 0.014 |
| CN(C)Cc1ccc(Nc2c(C(=O)C3CC3)cnc3ccc(-c4cc(Cl)c(O)c(Cl)c4)cc23)nc1 [Example 417, cyclopropyl(6-(3,5-dichloro-4-hydroxyphenyl)-4-(5-((dimethylamino)methyl)pyridin-2-ylamino)quinolin-3-yl)methanone] | 22 |  | 1.7 | 1.8 | 0.0099 |
| CN(C)C1CCN(C[C@H]2CC[C@H](Nc3c(C(=O)C4CC4)cnc4ccc(-c5cc(Cl)c(O)c(Cl)c5)cc34)CC2)C1 (some centres unmarked) [Example 663] | 4.6 | 0.17 | 0.32 | 0.22 |  |
| CN(C)C[C@H]1CC[C@H](Nc2c(C(=O)C3CC3)cnc3ccc(-c4cnc(C#N)nc4)cc23)CC1 [Example 426] | 3.7 |  | 0.43 | 1.5 | 0.0025 |
| CN(C)C[C@H]1CC[C@H](Nc2c(S(C)(=O)=O)cnc3ccc(-c4ccc(O)c(Cl)c4)cc23)CC1 [Example 424] | 1.1 |  | 0.43 | 0.79 | 0.013 |
| CN(C)CC1CCN(c2c(C(=O)C3CC3)cnc3ccc(-c4ccc5cc(O)ccc5c4)cc23)CC1 [Example 449] | 3.3 |  | 1.8 | 0.64 | 0.014 |
| COc1cc(-c2ccc3ncc(C(C)=O)c(Nc4ccc(CN5CCN(C)CC5)cc4)c3c2)cc(Cl)c1O [Example 653, 1-(6-(3-chloro-4-hydroxy-5-methoxyphenyl)-4-(4-((4-methylpiperazin-1-yl)methyl)phenylamino)quinolin-3-yl)ethanone] | 1.9 | 0.32 | 1.3 | 0.5 |  |
| CN(C)[C@H]1CC[C@H](Nc2c(C#N)cnc3ccc(-c4cc(F)c(O)c(Cl)c4)cc23)CC1 [Example 446] | 10 |  | 0.61 | 8.4 | 0.0027 |
| CN(C)C1CCN(Cc2ccc(Nc3c(C(=O)C4CC4)cnc4ccc(-c5cc(Cl)c(O)c(Cl)c5)cc34)cc2)C1 (centres unmarked) [Example 694, cyclopropyl(6-(3,5-dichloro-4-hydroxyphenyl)-4-(4-((3-(dimethylamino)pyrrolidin-1-yl)methyl)phenylamino)quinolin-3-yl)methanone] | 7.5 | 0.12 | 0.41 | 0.15 |  |
| COc1cc(-c2ccc3ncc(C(=O)C4CC4)c(Nc4ccc(CN5CCN(C)CC5)cc4)c3c2)ccc1O [Example 405, cyclopropyl(6-(4-hydroxy-3-methoxyphenyl)-4-(4-((4-methylpiperazin-1-yl)methyl)phenylamino)quinolin-3-yl)methanone] | 3.5 |  | 0.76 | 0.8 | 0.017 |
| CCN(CC)C1CCC(Nc2c(C(=O)C3CCCC3)cnc3ccc(-c4ccc(O)c(Cl)c4)cc23)CC1 (centres unmarked) [Example 385, (6-(3-chloro-4-hydroxyphenyl)-4-(4-(diethylamino)cyclohexylamino)quinolin-3-yl)(cyclopentyl)methanone] | 1.9 |  | 1.7 | 0.94 | 0.019 |
| CS(=O)(=O)c1cnc2ccc(-c3cc(F)c(O)c(Cl)c3)cc2c1N1CCC(CN2CCCC2)CC1 [Example 407, 2-chloro-6-fluoro-4-(3-(methylsulfonyl)-4-(4-(pyrrolidin-1-ylmethyl)piperidin-1-yl)quinolin-6-yl)phenol] | 6.5 |  | 0.75 | 3.8 | 0.0051 |
| CN1CCN(Cc2ccc(Nc3c(C(=O)C4CC4)cnc4ccc(-c5ccc(O)c(Cl)c5)cc34)cc2)CC1 [Example 406, (6-(3-chloro-4-hydroxyphenyl)-4-(4-((4-methylpiperazin-1-yl)methyl)phenylamino)quinolin-3-yl)(cyclopropyl)methanone] | 3.4 |  | 1.3 | 0.49 | 0.019 |
| COc1cc(-c2ccc3ncc(S(C)(=O)=O)c(N[C@H]4CC[C@H](CN(C)C)CC4)c3c2)cc(Cl)c1O [Example 422] | 4.4 |  | 0.7 | 0.65 | 0.0041 |
| O=C(c1cnc2ccc(-c3cc(Cl)c(O)c(Cl)c3)cc2c1-c1ccc(NCCN2CCOCC2)nc1)C1CC1 [Example 450] | 12 |  | 1.8 | 4.6 | 0.018 |
| CC(=O)c1cnc2ccc(-c3cnc(C#N)nc3)cc2c1Nc1ccc(CN2CCCC2)cc1 [Example 413, 5-(3-acetyl-4-(4-(pyrrolidin-1-ylmethyl)phenylamino)quinolin-6-yl)pyrimidine-2-carbonitrile] | 1.2 |  | 0.35 | 1.7 | 0.0029 |
| O=C(c1cnc2ccc(-c3ccc(O)c(Cl)c3)cc2c1N1CCN(CCN2CCCC2)CC1)C1CC1 [Example 403, (6-(3-chloro-4-hydroxyphenyl)-4-(4-(2-(pyrrolidin-1-yl)ethyl)piperazin-1-yl)quinolin-3-yl)(cyclopropyl)methanone] | 10 |  | 4.5 | 1.3 | 0.011 |
| CN(C)Cc1ccc(-c2c(C(=O)C3CC3)cnc3ccc(-c4cc(Cl)c(O)c(Cl)c4)cc23)cc1 [Example 431, cyclopropyl(6-(3,5-dichloro-4-hydroxyphenyl)-4-(4-((dimethylamino)methyl)phenyl)quinolin-3-yl)methanone] | 7.5 |  | 0.97 | 0.59 | 0.0039 |
| COc1cc(-c2ccc3ncc(C#N)c(N4CCC(CN5CCCC5)CC4)c3c2)cc(Cl)c1O [Example 428, 6-(3-chloro-4-hydroxy-5-methoxyphenyl)-4-(4-(pyrrolidin-1-ylmethyl)piperidin-1-yl)quinoline-3-carbonitrile] | 13 |  | 7.6 | 2.6 | 0.0037 |
| COc1cc(-c2ccc3ncc(C(C)=O)c(Nc4ccc(CN(C)C)cc4)c3c2)cc(Cl)c1O [Example 391, 1-(6-(3-chloro-4-hydroxy-5-methoxyphenyl)-4-(4-((dimethylamino)methyl)phenylamino)quinolin-3-yl)ethanone] | 4.2 |  | 0.12 | 1 | 0.0037 |
| N#Cc1cnc2ccc(-c3cc(F)c(O)c(Cl)c3)cc2c1N1CCC(CN2CCCC2)CC1 [Example 434, 6-(3-chloro-5-fluoro-4-hydroxyphenyl)-4-(4-(pyrrolidin-1-ylmethyl)piperidin-1-yl)quinoline-3-carbonitrile] | 10 |  | 0.45 | 1.1 | 0.035 |
| COc1cc(-c2ccc3ncc(C(=O)C4CC4)c(Nc4ccc(CN(C)C)cn4)c3c2)cc(Cl)c1O [Example 429, (6-(3-chloro-4-hydroxy-5-methoxyphenyl)-4-(5-((dimethylamino)methyl)pyridin-2-ylamino)quinolin-3-yl)(cyclopropyl)methanone] | 19 |  | 3.8 | 5.1 | 0.019 |
| CN(C)CC(=O)N1CCN(c2c(C(=O)C3CC3)cnc3ccc(-c4cc(F)c(O)c(Cl)c4)cc23)CC1 [Example 442, 1-(4-(6-(3-chloro-5-fluoro-4-hydroxyphenyl)-3-(cyclopropanecarbonyl)quinolin-4-yl)piperazin-1-yl)-2-(dimethylamino)ethanone] | 5.5 |  | 0.74 | 1.5 | 0.0035 |
